From ChEMBL document CHEMBL1201862, “PubChem BioAssay data set” (2004) come the findings set out here.

Format in all cases: functional
For assay [1], the target named is Serine/threonine-protein kinase TBK1 (Homo sapiens, UniProt Q9UHD2). Put plainly: Navigating the Kinome. Panel member name: TBK1.
Assay [2] concerns the target Tyrosine-protein kinase Lck (Homo sapiens, UniProt P06239).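 Also: lck was assayed as one member of a kinase panel.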
Another assay has as its target Activin receptor type-1 (Homo sapiens, UniProt Q04771). The assay is described as follows: Navigating the Kinome. Panel member name: ACVR1.
The target in assay [3] is Serine/threonine-protein kinase PAK 4 (Homo sapiens, UniProt O96013).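 Also: value obtained within a kinome profiling panel in which PAK4 was one of the panel members.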
Sequence of Serine/threonine-protein kinase PAK 4 (O96013 whole entry): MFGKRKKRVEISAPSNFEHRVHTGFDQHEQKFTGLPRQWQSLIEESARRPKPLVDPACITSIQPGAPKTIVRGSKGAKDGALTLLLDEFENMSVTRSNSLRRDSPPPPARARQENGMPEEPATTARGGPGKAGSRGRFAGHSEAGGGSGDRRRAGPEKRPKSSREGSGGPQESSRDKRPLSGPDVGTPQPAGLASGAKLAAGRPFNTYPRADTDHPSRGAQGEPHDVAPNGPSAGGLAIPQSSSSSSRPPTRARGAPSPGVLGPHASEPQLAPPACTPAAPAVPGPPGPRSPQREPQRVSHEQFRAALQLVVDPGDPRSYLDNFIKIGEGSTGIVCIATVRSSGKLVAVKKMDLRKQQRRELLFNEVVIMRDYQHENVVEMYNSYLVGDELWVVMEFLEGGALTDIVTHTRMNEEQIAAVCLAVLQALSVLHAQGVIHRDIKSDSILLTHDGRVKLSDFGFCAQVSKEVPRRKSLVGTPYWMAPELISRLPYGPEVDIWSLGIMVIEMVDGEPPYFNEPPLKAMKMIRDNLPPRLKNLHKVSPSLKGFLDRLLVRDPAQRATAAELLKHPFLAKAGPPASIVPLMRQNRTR
Assay [4] deals with Fibroblast growth factor receptor 1 (Homo sapiens, UniProt P11362).
For assay [5], the target named is Glycogen synthase kinase-3 alpha (Homo sapiens, UniProt P49840).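 Also: GSK3A result taken from a broad kinome-wide kinase panel.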
In assay [6] the target is Cyclin-dependent kinase 5 (Homo sapiens, UniProt Q00535).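 Also: CDK5 measured as one member of a kinase profiling panel.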
The target in assay [7] is Cyclin-dependent kinase 8 (Homo sapiens, UniProt P49336). Put plainly: Navigating the Kinome. Panel member name: CDK8.
Sequence of Cyclin-dependent kinase 8 (P49336 whole entry): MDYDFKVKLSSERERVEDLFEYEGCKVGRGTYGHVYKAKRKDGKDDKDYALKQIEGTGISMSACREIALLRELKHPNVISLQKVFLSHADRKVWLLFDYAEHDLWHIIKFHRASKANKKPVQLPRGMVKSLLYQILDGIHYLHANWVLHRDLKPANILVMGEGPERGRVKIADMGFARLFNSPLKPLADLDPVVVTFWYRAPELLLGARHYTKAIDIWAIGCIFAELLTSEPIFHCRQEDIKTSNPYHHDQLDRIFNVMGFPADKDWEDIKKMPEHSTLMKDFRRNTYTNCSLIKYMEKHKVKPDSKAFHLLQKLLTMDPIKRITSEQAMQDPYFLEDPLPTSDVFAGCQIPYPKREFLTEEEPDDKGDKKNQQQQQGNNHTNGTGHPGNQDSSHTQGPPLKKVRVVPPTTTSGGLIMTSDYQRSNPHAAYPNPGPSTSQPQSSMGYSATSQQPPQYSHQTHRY
For assay [8], the target named is Cyclin-dependent kinase 7 (Homo sapiens, UniProt P50613).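 Also: value comes from a kinome-wide kinase profiling panel in which CDK7 is one member.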
Sequence of Cyclin-dependent kinase 7 (P50613 whole entry): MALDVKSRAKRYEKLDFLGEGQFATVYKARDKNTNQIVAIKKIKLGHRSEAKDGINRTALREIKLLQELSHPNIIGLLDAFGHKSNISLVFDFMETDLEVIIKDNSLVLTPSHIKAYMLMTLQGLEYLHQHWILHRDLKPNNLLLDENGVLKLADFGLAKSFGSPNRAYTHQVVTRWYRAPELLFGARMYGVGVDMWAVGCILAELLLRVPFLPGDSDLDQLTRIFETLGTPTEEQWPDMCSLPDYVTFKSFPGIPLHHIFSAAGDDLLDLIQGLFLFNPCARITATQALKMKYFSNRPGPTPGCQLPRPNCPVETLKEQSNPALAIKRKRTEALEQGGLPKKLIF
Assay [9] concerns the target Glycogen synthase kinase-3 beta (Homo sapiens, UniProt P49841).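 Also: value comes from a broad kinome profiling panel, with GSK3B as the panel member.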
Assay [10] addresses Cyclin-dependent kinase 9 (Homo sapiens, UniProt P50750).
For assay [11], the target named is Mitogen-activated protein kinase kinase kinase kinase 4 (Homo sapiens, UniProt O95819).
Sequence of Mitogen-activated protein kinase kinase kinase kinase 4 (O95819 whole entry): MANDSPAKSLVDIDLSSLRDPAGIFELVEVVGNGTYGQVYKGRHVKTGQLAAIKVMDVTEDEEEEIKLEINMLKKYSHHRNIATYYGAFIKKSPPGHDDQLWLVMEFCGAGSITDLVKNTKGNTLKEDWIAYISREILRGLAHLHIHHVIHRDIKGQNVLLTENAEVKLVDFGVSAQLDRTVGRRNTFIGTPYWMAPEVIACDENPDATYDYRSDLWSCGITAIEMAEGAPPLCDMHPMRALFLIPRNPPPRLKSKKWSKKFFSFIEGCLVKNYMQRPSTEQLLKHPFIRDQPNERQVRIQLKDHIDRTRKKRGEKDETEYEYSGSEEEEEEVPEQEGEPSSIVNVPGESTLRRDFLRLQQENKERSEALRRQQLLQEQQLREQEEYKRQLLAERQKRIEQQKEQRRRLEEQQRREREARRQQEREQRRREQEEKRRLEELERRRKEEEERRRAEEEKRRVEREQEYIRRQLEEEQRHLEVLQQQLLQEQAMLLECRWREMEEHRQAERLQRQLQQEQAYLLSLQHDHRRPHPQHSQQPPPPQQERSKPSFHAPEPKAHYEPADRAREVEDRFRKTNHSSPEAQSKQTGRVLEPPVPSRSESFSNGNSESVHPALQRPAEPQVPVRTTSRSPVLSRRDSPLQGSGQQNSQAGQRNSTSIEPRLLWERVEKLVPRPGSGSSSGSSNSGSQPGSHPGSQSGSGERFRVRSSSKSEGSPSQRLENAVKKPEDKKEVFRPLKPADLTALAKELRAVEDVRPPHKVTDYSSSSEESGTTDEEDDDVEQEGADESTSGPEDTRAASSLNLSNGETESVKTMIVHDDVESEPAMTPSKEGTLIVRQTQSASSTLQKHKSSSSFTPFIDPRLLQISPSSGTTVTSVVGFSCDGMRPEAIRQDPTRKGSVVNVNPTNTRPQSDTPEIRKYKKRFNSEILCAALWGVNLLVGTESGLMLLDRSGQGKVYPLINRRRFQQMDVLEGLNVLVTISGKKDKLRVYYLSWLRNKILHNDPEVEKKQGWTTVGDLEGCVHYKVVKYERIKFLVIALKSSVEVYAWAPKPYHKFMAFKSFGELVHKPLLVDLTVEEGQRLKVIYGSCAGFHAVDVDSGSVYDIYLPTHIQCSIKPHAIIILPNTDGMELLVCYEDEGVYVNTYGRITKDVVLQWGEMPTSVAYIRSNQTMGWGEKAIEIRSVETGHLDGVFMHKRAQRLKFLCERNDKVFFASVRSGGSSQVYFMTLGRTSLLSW
Assay [12] has as its target Inhibitor of nuclear factor kappa-B kinase subunit epsilon (Homo sapiens, UniProt Q14164). The assay is described as follows: Navigating the Kinome. Panel member name: IKBKE.
In assay [13] the target is Mitogen-activated protein kinase 14 (Homo sapiens, UniProt Q16539).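 Also: part of a kinome-wide panel, MAPK14 entry.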
For another assay, the target named is T1, Caspase-3 (Homo sapiens, UniProt P42574).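 Also: Dose-response selectivity test against caspase-3 for candidate inhibitors of sentrin-specific proteases (SENPs).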
T1 sequence (P42574 whole entry): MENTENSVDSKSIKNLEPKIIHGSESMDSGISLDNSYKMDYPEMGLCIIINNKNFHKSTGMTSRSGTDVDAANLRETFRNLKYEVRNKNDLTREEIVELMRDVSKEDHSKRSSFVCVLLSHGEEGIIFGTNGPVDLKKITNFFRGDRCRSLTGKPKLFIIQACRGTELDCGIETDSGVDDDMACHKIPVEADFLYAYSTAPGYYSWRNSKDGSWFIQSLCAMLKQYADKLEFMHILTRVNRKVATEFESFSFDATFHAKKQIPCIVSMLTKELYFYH

For assay [14], the target named is T2, Sentrin-specific protease 6 (Homo sapiens, UniProt Q9GZR1).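 Also: Luminescence-based dose-response confirmatory assay of SENP6 inhibition, following up an ultra-high-throughput screen.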
T2 sequence (Q9GZR1 whole entry): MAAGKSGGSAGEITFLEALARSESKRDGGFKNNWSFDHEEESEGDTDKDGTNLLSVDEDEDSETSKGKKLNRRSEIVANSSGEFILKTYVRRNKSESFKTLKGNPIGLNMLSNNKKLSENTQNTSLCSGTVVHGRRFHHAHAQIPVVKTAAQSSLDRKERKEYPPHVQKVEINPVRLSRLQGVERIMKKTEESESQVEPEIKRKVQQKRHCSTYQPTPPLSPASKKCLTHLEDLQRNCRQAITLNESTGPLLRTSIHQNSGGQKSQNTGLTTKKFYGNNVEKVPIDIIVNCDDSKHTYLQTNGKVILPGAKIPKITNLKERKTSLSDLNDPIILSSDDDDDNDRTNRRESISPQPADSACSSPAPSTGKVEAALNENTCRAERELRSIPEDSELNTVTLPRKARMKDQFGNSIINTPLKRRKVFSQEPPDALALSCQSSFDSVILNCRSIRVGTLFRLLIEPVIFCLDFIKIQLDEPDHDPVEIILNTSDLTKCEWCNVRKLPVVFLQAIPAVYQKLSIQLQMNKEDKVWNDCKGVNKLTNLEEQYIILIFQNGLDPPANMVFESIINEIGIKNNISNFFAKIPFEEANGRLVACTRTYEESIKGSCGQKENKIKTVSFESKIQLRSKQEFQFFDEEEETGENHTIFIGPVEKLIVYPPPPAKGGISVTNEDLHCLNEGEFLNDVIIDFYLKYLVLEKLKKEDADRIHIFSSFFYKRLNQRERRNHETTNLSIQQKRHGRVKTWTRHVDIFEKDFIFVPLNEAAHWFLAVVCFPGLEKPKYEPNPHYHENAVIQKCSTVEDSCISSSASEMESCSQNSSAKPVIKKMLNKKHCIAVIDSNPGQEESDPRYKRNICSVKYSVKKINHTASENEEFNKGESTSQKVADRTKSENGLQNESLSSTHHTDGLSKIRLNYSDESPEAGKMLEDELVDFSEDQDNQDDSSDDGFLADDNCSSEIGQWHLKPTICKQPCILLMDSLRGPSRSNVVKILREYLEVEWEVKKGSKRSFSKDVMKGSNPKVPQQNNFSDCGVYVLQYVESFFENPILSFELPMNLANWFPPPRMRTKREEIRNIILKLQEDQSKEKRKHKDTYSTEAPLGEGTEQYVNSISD

Assay [15] has as its target Protein kinase C theta type (Homo sapiens, UniProt Q04759). Put plainly: Navigating the Kinome. Panel member name: PRKCQ.
The target of assay [16] is Tyrosine-protein kinase JAK2 (Homo sapiens, UniProt O60674).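 Also: JAK2 tested as one member of a kinase panel.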
For assay [17], the target named is Casein kinase I isoform alpha (Homo sapiens, UniProt P48729).
The target of assay [18] is Mitogen-activated protein kinase kinase kinase kinase 2 (Homo sapiens, UniProt Q12851).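 Also: measured as one member of a kinome-wide kinase panel, with MAP4K2 as the panel entry.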
Sequence of Mitogen-activated protein kinase kinase kinase kinase 2 (Q12851 whole entry): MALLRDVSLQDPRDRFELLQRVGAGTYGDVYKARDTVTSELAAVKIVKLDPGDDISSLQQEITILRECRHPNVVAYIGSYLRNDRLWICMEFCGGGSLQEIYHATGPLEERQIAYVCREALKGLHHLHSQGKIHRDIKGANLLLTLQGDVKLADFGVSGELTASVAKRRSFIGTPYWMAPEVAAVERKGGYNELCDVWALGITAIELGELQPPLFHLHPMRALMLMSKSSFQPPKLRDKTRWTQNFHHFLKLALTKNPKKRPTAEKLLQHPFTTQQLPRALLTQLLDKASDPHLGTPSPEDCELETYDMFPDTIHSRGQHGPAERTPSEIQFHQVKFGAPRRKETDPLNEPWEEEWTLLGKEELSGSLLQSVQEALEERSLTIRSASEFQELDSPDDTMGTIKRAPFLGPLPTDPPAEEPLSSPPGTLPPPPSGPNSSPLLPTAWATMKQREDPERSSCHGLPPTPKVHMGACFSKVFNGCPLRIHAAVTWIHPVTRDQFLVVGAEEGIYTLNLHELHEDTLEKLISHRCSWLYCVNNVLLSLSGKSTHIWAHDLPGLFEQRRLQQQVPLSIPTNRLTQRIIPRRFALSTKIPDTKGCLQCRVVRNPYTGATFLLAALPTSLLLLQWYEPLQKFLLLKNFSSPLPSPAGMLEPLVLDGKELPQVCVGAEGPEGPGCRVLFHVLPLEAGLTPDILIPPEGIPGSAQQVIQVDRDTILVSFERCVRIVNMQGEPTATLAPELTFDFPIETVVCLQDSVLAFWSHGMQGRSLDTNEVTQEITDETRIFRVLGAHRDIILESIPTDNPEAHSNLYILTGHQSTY
Assay [19] deals with Insulin-like growth factor 1 receptor (Homo sapiens, UniProt P08069). The assay is described as follows: Navigating the Kinome. Panel member name: IGF1R.
The target of assay [20] is cAMP-dependent protein kinase catalytic subunit alpha (Homo sapiens, UniProt P17612).
The target of assay [21] is Macrophage colony-stimulating factor 1 receptor (Homo sapiens, UniProt P07333).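 Also: value comes from the Navigating the Kinome screening panel, CSF1R member.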

Structures are written as SMILES. Active and inactive are the calls of the source.

As a reminder, the Ki is a dissociation constant, usually derived from enzyme kinetics or from competition with a known ligand. The IC50 is the point on the concentration scale where inhibition reaches its midpoint.

Sequence of Activin receptor type-1 (Q04771 whole entry): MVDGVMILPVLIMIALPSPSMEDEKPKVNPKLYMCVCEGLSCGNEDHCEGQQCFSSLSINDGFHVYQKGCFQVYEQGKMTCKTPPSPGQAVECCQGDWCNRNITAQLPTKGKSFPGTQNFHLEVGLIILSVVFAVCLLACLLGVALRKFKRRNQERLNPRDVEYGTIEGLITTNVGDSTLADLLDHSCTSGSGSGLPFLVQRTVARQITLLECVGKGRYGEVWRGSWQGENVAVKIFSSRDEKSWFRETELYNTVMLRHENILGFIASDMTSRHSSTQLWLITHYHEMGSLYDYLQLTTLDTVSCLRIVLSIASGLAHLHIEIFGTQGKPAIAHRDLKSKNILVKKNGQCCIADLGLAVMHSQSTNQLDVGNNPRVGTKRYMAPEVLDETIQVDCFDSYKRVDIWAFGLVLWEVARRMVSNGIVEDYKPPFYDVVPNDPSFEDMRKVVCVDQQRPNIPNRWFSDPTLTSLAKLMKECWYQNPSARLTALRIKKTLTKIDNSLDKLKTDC
Sequence of Cyclin-dependent kinase 9 (P50750 whole entry): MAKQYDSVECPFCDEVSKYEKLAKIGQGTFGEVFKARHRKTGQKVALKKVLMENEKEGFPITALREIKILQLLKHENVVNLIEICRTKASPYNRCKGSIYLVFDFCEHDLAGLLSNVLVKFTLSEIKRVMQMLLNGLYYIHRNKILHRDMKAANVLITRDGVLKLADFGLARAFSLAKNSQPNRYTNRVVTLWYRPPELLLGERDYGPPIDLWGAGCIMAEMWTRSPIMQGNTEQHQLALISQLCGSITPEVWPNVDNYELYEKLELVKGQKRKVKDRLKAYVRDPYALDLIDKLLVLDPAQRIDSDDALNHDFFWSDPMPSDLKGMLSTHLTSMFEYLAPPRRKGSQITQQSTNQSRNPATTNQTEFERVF
Sequence of Glycogen synthase kinase-3 beta (P49841 whole entry): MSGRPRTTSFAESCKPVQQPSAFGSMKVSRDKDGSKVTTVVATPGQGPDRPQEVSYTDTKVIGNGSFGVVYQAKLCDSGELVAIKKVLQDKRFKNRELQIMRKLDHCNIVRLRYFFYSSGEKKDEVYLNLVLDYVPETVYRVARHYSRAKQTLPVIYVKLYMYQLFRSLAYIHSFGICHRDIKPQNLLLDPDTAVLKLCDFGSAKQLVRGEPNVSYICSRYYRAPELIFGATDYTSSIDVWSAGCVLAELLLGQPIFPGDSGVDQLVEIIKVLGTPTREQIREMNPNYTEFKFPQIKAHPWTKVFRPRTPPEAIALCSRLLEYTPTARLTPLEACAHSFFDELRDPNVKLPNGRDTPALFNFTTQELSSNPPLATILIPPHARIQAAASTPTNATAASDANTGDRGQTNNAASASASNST

For `Cc1ccc(C)c(NC(=O)c2cc(-c3ccco3)nc3ccccc23)c1`, the Ki in [1] is > 3.16 µM (inactive); in assay [2], > 6.31 µM (inactive); on Activin receptor type-1, 3.16 µM (active); in assay [3], 3.98 µM (active); in assay [4] it was 1.58 µM (active); in assay [5], > 3.98 µM (inactive). Further, the Ki in assay [6] is 1 µM (active); in assay [7], 1 µM (active); in [8] it was 3.98 µM (active); in assay [9], 1.58 µM (active); in assay [10] it was 0.398 µM (active); in [11], > 5.01 µM (inactive). Besides, the Ki in [12] is 3.16 µM (active); in [13], > 3.98 µM (inactive).
Regarding `CC(/C=C1\SC(=S)N(NS(=O)(=O)c2ccc(C)cc2)C1=O)=C\c1ccccc1`, the results for the 50% inhibitory concentration (IC50) (at Caspase-3; in assay [14]) were 12.9 µM (active) and 3.12 µM (active), respectively.
As for `CN1CCC(c2c(O)cc(O)c3c(=O)cc(-c4ccccc4Cl)oc23)C(O)C1` (stereo unspecified), the Ki in assay [15] was 0.0794 µM (active); in [16], > 2 µM (inactive); in assay [17] it was > 5.01 µM (inactive); in assay [18], 1 µM (active); in assay [19], > 2 µM (inactive); in assay [20], > 3.98 µM (inactive). Besides, the values for the Ki in assay [21] and in assay [13] were > 2.51 µM (inactive) and 3.98 µM (active), respectively.
`COc1ccc(C2=NNc3cccc4c(OC)ccc2c34)cc1OC`: the Ki in [15] is 1.58 µM (active); in assay [16] it was 1 µM (active); in [1], 0.631 µM (active); in assay [2] it was > 6.31 µM (inactive); at Activin receptor type-1, 0.631 µM (active); in [3], 2 µM (active). Also, the Ki in assay [4] was > 3.98 µM (inactive); in [17] it was 0.0126 µM (active); in assay [5] it was > 3.98 µM (inactive); in [18] it was 2 µM (active); in [6], 0.251 µM (active); in [19] it was > 2.51 µM (inactive). Moreover, the Ki in [7] was > 3.98 µM (inactive); in [8] it was > 3.98 µM (inactive); in assay [9] it was > 3.98 µM (inactive); in [10], 0.2 µM (active); in [20] it was > 1.26 µM (inactive); in assay [11], 0.398 µM (active). In addition, the results for the Ki in assay [21] and in [12] were > 2.51 µM (inactive) and 0.501 µM (active), respectively.
In the case of `Cc1ccc(NC2=C(NCCO)C(=O)c3ccccc3C2=O)cc1`, the IC50 on Caspase-3 was 11.4 µM (active); in [14], 6.66 µM (active).
